Measured values taken from patent US20040002445A1, “Enhancement of endogenous gonadotropin production” (priority 2002, published 2004).

What was measured:
[1] = tested on: plasma testosterone; assay: Phase 1 study of oral leuprolide acetate for 28 days, hormonal response (plasma testosterone); type: in vivo, human; details: for Testosterone levels: healthy males
Excerpt: Twenty subjects were assigned to each dosing group.

[2] = tested on: plasma LH and FSH; details: intermittent, but not continuous, administration; cited from earlier work
[3] = tested on: serum LH; details: two stimulations with 25 mcg each on 3 consecutive days, 12 normally menstruating females; cited from earlier work

Molecule: CCNC(=O)[C@@H]1CCCN1C(=O)[C@H](CCCNC(=N)N)NC(=O)[C@H](CC(C)C)NC(=O)[C@@H](CC(C)C)NC(=O)[C@H](Cc1ccc(O)cc1)NC(=O)[C@H](CO)NC(=O)[C@H](Cc1c[nH]c2ccccc12)NC(=O)[C@H](Cc1c[nH]cn1)NC(=O)[C@@H]1CCC(=O)N1 [leuprolide acetate]
- Testosterone levels relative to baseline ([1]; Group A, 5 mg q.d. oral): failed to raise the levels of testosterone above the baseline
- Testosterone levels ([1]; Group A, 5 mg q.d. oral, Day 2, baseline 453.25): 452.45 ng/dL
- Testosterone levels ([1]; Group A, 5 mg q.d. oral, Day 3, baseline 453.25): 406.25 ng/dL
- Testosterone levels ([1]; Group A, 5 mg q.d. oral, Day 4, baseline 453.25): 384.70 ng/dL
- Testosterone levels ([1]; Group A, 5 mg q.d. oral, Day 5, baseline 453.25): 430.55 ng/dL
- Testosterone levels ([1]; Group A, 5 mg q.d. oral, Day 6, baseline 453.25): 434.55 ng/dL
- Testosterone levels ([1]; Group A, 5 mg q.d. oral, Day 7, baseline 453.25): 413.75 ng/dL
- Testosterone levels ([1]; Group A, 5 mg q.d. oral, Day 8, baseline 453.25): 405.85 ng/dL
- Testosterone levels ([1]; Group A, 5 mg q.d. oral, Day 9, baseline 453.25): 358.8 ng/dL
- Testosterone levels ([1]; Group A, 5 mg q.d. oral, Day 10, baseline 453.25): 369.80 ng/dL
- Testosterone levels relative to baseline ([1]; Group B, 5 mg b.i.d. oral): higher than the baseline until Day 7
- Testosterone levels ([1]; Group B, 5 mg b.i.d. oral, Day 2, baseline 485.00): 563.5 ng/dL
- Testosterone levels ([1]; Group B, 5 mg b.i.d. oral, Day 3, baseline 485.00): 541.35 ng/dL
- Testosterone levels ([1]; Group B, 5 mg b.i.d. oral, Day 4, baseline 485.00): 527.40 ng/dL
- Testosterone levels ([1]; Group B, 5 mg b.i.d. oral, Day 5, baseline 485.00): 502.85 ng/dL
- Testosterone levels ([1]; Group B, 5 mg b.i.d. oral, Day 6, baseline 485.00): 493.25 ng/dL
- Testosterone levels ([1]; Group B, 5 mg b.i.d. oral, Day 7, baseline 485.00): 484.75 ng/dL
- Testosterone levels ([1]; Group B, 5 mg b.i.d. oral, Day 8, baseline 485.00): 449.10 ng/dL
- Testosterone levels ([1]; Group B, 5 mg b.i.d. oral, Day 9, baseline 485.00): 427.65 ng/dL
- Testosterone levels ([1]; Group B, 5 mg b.i.d. oral, Day 10, baseline 485.00): 428.95 ng/dL
- Elevation of plasma testosterone, comparison of dose groups ([1]; Group B, 5 mg b.i.d., compared with Group C, 10 mg q.d.): more significant elevation of plasma testosterone
- Testosterone levels relative to baseline ([1]; Group C, 10 mg q.d. oral): higher than the baseline until Day 6
- Testosterone levels ([1]; Group C, 10 mg q.d. oral, Day 2, baseline 458.85): 495.85 ng/dL
- Testosterone levels ([1]; Group C, 10 mg q.d. oral, Day 3, baseline 458.85): 501.00 ng/dL
- Testosterone levels ([1]; Group C, 10 mg q.d. oral, Day 4, baseline 458.85): 492.20 ng/dL
- Testosterone levels ([1]; Group C, 10 mg q.d. oral, Day 5, baseline 458.85): 463.90 ng/dL
- Testosterone levels ([1]; Group C, 10 mg q.d. oral, Day 6, baseline 458.85): 412.65 ng/dL
- Testosterone levels ([1]; Group C, 10 mg q.d. oral, Day 7, baseline 458.85): 435.50 ng/dL
- Testosterone levels ([1]; Group C, 10 mg q.d. oral, Day 8, baseline 458.85): 409.00 ng/dL
- Testosterone levels ([1]; Group C, 10 mg q.d. oral, Day 9, baseline 458.85): 428.05 ng/dL
- Testosterone levels ([1]; Group C, 10 mg q.d. oral, Day 10, baseline 458.85): 405.95 ng/dL

Molecule: gonadotropin releasing hormone (QHWSYGLRPG; Gonadoliberin-1; UniProt P01148 24-33, looked up) [GnRH, hormone that is secreted by the hypothalamus in a pulsating fashion, also known as LH-RH]
- Plasma LH and FSH levels [2]: increases in plasma LH and FSH levels
- Serum LH levels [3]: Increases in serum LH levels
